Measured values: US7084165B2, “Monoamine reuptake inhibitors for treatment of CNS disorders” (Pfizer Inc, priority 1999, dated 2006)
Structures can show the parent of a compound that is named as a salt.

First: CNCc1ccc(C(F)(F)F)cc1Oc1ccc(Cl)c(Cl)c1
Second: CNCc1ccc(Cl)cc1Oc1ccc(Cl)c(Cl)c1
The melting point of the first is higher: 164 to 166 °C for the first, 132 to 133 °C for the second.

First: CNC(C)c1cc(F)ccc1Oc1ccc(Cl)c(Cl)c1 (stereo not shown)
Second: CN(C)Cc1cc(F)ccc1Oc1ccc(Cl)c(Cl)c1 (as salt: HCl) [Example 13, [2-(3,4-Dichlorophenoxy)-5-fluorobenzyl]-dimethylamine]
The melting point of the first is lower: 127 °C for the first, 174 to 175 °C for the second.

First: CC(=O)Nc1ccc(Oc2ccc(Cl)c(Cl)c2)c(CN(C)C)c1.Cl
Second: Cc1ccc(Oc2ccc(Cl)c(Cl)c2)c(CN(C)C)c1 (as salt: HCl)
The melting point of the first is higher: 199 to 202 °C for the first, 196 to 198 °C for the second.

First: Cl.Fc1ccc(Oc2ccc(Cl)c(Cl)c2)c(C2CCCN2)c1 (stereo not shown)
Second: NCc1cc(F)ccc1Oc1ccc(Cl)c(Cl)c1 (as salt: hydrochloride) [Example 57, 2-(3,4-DICHLOROPHENOXY)-5-FLUORO-BENZYLAMINE]
The melting point of the first is lower: 171 to 173 °C for the first, 190 to 194 °C for the second.

Compared with `CN(C)Cc1cc(C(F)(F)F)ccc1Oc1ccc(Cl)c(Cl)c1.O=C(O)/C=C\C(=O)O`, `CNCc1cc(OC)ccc1Oc1ccc(Cl)c(Cl)c1` (as salt: HCl) (hydrate or solvate) is higher in melting point: 127 to 128 °C for the first, 140 to 141 °C for the second.

`CNCc1cc(F)ccc1Oc1ccc(Cl)cc1` (as salt: HCl) and `CNCc1cc(Br)ccc1Oc1ccc(Cl)c(Cl)c1` (as salt: HCl) cannot be ordered by melting point: 208 to 209 °C for the first, 206 to 210 °C for the second.

First: CC(c1ccccc1Oc1ccc(Cl)c(Cl)c1)N(C)C (stereo not shown) (as salt: HCl)
Second: CNC(C)c1ccccc1Oc1ccc(Cl)cc1 (stereo not shown) (as salt: HCl)
The melting point of the first is lower: 130 to 133 °C for the first, 147 to 149 °C for the second.

First: CNCc1cc(OC)c(OC)cc1Oc1ccc(Cl)c(Cl)c1 (as salt: HCl)
Second: CNCc1ccc(Br)cc1Oc1ccc(Cl)c(Cl)c1 (as salt: HCl)
The melting point of the first is lower: 143 to 145 °C for the first, 185 to 189 °C for the second.
